Measurements reported in patent publication US12281079B2, “Quinoline derivatives, processes for their preparation and uses thereof for the treatment of cancer” (Lead Discovery Center GmbH, priority 2019, dated 2025).

These compounds were tested against mitochondrial RNA polymerase (POLRMT) (Mus musculus, UniProt Q8BKF1) (assay: Homogeneous TR-FRET assay for mitochondrial transcription activity). Details: homogeneous TR-FRET assay according to Example 4.
Format: biochemical
Text: The TR-FRET assay was basically conducted as described in WO2016/193231A1, especially as described in example 1 (hereby incorporated by reference). With respect to the back ground of the mitochondrial transcription it is referred to Falkenberg et al. (2002) and Posse et al. (Posse et al., 2015). The method monitors the activity of mitochondrial RNA-polymerase via detection of the formation of its product, a 407 bp long RNA sequence. Detection of the product is facilitated by hybridization of two DNA-oligonucleotide probes to specific and adjacent sequences within the RNA product sequence. Upon annealing of the probes, two fluorophores that are coupled directly to an acceptor nucleotide probe (ATT0647, 5′) or introduced via a coupled streptavidin interacting with a biotinylated donor nucleotide probe on the other side (Europium cryptate, 3′) are brought into sufficient proximity to serve as a fluorescence-donor-acceptor pair as generally described in Walters and Namchuk (2003). Thus, a FRET signal at 665 nm is generated upon excitation at 340 nm.
Briefly, the protocol described here was applied for screening and activity determination in a low-volume 384-well microtiter plate with non-binding surface. For high-throughput application in the 1536-well microtiter plate format, volumes of the reagent mixes were adjusted, maintaining the volumetric ratio. Proteins POLRMT (NM_172551.3), TFAM (NM_009360.4) and TFB2M (NM_008249.4) were diluted from their stocks to working concentrations of 150 nM, 1.8 μM and 330 nM respectively, in a dilution buffer containing 100 mM Tris-HCl pH 8.0, 200 mM NaCl, 10% (v/v) glycerole, 2 mM glutathione (GSH), 0.5 mM EDTA and 0.1 mg/mL BSA. Protein dilutions and template DNA, comprising a pUC18 plasmid encoding the mitochondrial light strand promoter, restriction linearized proximal to the promoter 3′-end (pUC-LSP), were mixed at the twofold final assay-concentration in a reaction buffer, containing 10 mM Tris-HCl pH 7.5, 10 mM MgCl2, 40 mM NaCl, 2 mM GSH, 0.01% (w/v) Tween-20 and 0.1 mg/mL BSA.
5 μL of this mix were dispensed, depending on the chosen microtiter plate format, using multi-channel pipettes or a Multidrop® dispenser (Thermo Fisher Scientific, Waltham Mass.) into the wells of a microtiter plate and incubated at room temperature (rt) for 10 min. Chemical compounds under scrutiny in the assay were applied using contact-free acoustic droplet-dispensing (Echo520® Labcyte Inc., Sunnyvale Calif.) from 10 mM compound stocks in 100% DMSO, to a final concentration of 10 μM or in serial dilution series of the required concentration range. Equal amounts of DMSO without any compound were added to positive control samples, followed by an incubation step at rt for 10 min.
The enzymatic reaction was started by the addition of 5 μL of a mix of dNTPs in reaction buffer to a final concentration of 500 μM each. No nucleotide mix was added to negative control samples. The content of the wells was mixed using a VarioTeleshaker™ (Thermo Fisher Scientific, Waltham Mass.) at 1500 rpm for 45 sec after which the microtiter plate was centrifuged at 500×g for 1 min. The samples were incubated for 2 h at rt with humidity control to avoid evaporation. The detection reagents were prepared in a buffer that was composed, such that the enzymatic reaction was terminated due to chelating of Mg-ions and increased ionic strength, containing 50 mM Tris-HCl pH 7.5, 700 mM NaCl, 20 mM EDTA, and 0.01% (w/v) Tween-20. Importantly Eu-cryptate-coupled streptavidin had to be preincubated with a 100-fold molar excess of a random sequence oligonucleotide for 10 min at rt in the dark to block unspecific binding of single stranded RNA to the protein. Subsequently, the blocked streptavidin(-Eu) was mixed with the DNA-probes on ice and kept away from light until use. […]

Chain of mitochondrial RNA polymerase (POLRMT) (Q8BKF1 42-1207): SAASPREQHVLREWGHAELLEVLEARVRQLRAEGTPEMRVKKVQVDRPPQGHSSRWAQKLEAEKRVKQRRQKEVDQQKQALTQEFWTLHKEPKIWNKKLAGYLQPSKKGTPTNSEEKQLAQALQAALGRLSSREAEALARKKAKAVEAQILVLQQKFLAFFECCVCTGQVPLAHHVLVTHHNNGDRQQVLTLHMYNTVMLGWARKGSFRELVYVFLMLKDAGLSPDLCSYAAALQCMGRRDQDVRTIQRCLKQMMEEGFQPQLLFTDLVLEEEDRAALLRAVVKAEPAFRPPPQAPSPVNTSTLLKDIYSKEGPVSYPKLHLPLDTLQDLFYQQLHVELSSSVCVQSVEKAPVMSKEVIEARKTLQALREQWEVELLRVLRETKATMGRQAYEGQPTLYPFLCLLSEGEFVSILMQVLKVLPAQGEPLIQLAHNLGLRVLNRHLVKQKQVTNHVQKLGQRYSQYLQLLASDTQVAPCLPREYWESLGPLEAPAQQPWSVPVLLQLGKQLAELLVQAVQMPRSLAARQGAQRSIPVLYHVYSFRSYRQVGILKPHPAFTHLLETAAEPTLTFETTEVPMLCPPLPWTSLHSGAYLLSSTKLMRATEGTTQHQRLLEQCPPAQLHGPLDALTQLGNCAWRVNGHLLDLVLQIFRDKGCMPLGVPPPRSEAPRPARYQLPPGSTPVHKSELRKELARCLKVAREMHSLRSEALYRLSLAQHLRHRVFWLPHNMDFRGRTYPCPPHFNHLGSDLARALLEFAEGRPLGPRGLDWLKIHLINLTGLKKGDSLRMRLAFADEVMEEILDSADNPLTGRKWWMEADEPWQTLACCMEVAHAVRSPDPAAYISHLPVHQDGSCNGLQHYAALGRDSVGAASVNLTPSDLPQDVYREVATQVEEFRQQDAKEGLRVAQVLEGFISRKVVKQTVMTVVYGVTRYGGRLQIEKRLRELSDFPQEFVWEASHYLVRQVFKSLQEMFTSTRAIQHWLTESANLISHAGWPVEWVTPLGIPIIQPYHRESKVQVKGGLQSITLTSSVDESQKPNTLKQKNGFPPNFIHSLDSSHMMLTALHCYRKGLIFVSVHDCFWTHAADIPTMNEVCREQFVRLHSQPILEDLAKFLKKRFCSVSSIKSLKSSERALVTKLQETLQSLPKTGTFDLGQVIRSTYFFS

Compound | IC50 [nM]
CCC(=O)N1CCN(C(=O)[C@@H](C)Oc2ccc3c(-c4ccccc4Cl)cc(Cl)nc3c2)CC1 [Compound 72, (2R)-2-[[2-chloro-4-(2-chlorophenyl)-7-quinolyl]oxy]-1-(4-propanoylpiperazin-1-yl)propan-1-one] | 100 to 1000
CCOC(=O)[C@H]1CCN(C(=O)[C@@H](C)Oc2ccc3c(-c4ccc(F)cc4Cl)ccnc3c2)C1 [Compound 75, ethyl (3S)-1-[(2R)-2-[[4-(2-chloro-4-fluoro-phenyl)-7-quinolyl]oxy]propanoyl]pyrrolidine-3-carboxylate] | 100 to 1000
CC(C)OC(=O)COc1ccc2c(-c3ccccc3Cl)ccnc2c1 [Compound 82, isopropyl 2-[[4-(2-chlorophenyl)-7-quinolyl]oxy]acetate] | 1000 to 10000
Cc1cc(F)cc(C)c1-c1ccnc2cc(O[C@H](C)C(=O)N3CCC[C@H](C(=O)O)C3)ccc12 [Compound 84, (3S)-1-[(2R)-2-[[4-(4-fluoro-2,6-dimethyl-phenyl)-7-quinolyl]oxy]propanoyl]piperidine-3-carboxylic acid] | < 20
C[C@@H](Oc1ccc2c(-c3ccccc3Cl)cc(Cl)nc2c1)C(=O)N1CCN(C(=O)CN)CC1 [Compound 85, (2R)-1-[4-(2-aminoacetyl)piperazin-1-yl]-2-[[2-chloro-4-(2-chlorophenyl)-7-quinolyl]oxy]propan-1-one] | 1000 to 10000
CCOC(=O)[C@H]1CCCN(C(=O)COc2ccc3c(-c4ccccc4Cl)ccnc3c2)C1 [Compound 87, ethyl (3S)-1-[2-[[4-(2-chlorophenyl)-7-quinolyl]oxy]acetyl]piperidine-3-carboxylate] | 1000 to 10000
CCOC(=O)C[C@@H]1CCCN(C(=O)[C@@H](C)Oc2ccc3c(-c4ccc(F)cc4Cl)ccnc3c2)C1 [Compound 89, ethyl 2-[(3S)-1-[(2R)-2-[[4-(2-chloro-4-fluoro-phenyl)-7-quinolyl]oxy]propanoyl]-3-piperidyl]acetate] | 1000 to 10000
C[C@@H](Oc1ccc2c(-c3ccccc3Cl)cc(F)nc2c1)C(=O)O [Compound 90, (2R)-2-[[4-(2-chlorophenyl)-2-fluoro-7-quinolyl]oxy]propanoic acid] | 1000 to 10000
C[C@@H](Oc1ccc2c(-c3ccc(F)cc3Cl)cc(Cl)nc2c1)C(=O)O [Compound 91, (2R)-2-[[2-chloro-4-(2-chloro-4-fluoro-phenyl)-7-quinolyl]oxy]propanoic acid] | 1000 to 10000
CCOC(=O)C[C@H]1CCCN(C(=O)[C@@H](C)Oc2ccc3c(-c4ccccc4Cl)cc(Cl)nc3c2)C1 [Compound 92, ethyl 2-[(3R)-1-[(2R)-2-[[2-chloro-4-(2-chlorophenyl)-7-quinolyl]oxy]propanoyl]-3-piperidyl]acetate] | 1000 to 10000
CCOC(=O)C[C@H]1CCCN(C(=O)[C@@H](C)Oc2ccc3c(-c4ccc(F)cc4Cl)cc(Cl)nc3c2)C1 [Compound 93, ethyl 2-[(3R)-1-[(2R)-2-[[2-chloro-4-(2-chloro-4-fluoro-phenyl)-7-quinolyl]oxy]propanoyl]-3-piperidyl]acetate] | 1000 to 10000
CCOC(=O)[C@H]1CCCN(C(=O)[C@@H](C)Oc2ccc3c(-c4ccc(F)cc4C)cc(Cl)nc3c2)C1 [Compound 94, ethyl (3S)-1-[(2R)-2-[[2-chloro-4-(4-fluoro-2-methyl-phenyl)-7-quinolyl]oxy]propanoyl]piperidine-3-carboxylate] | 1000 to 10000
CNC(=O)[C@H]1CCCN(C(=O)[C@@H](C)Oc2ccc3c(-c4ccccc4Cl)cc(Cl)nc3c2)C1 [Compound 96, (3S)-1-[(2R)-2-[[2-chloro-4-(2-chlorophenyl)-7-quinolyl]oxy]propanoyl]-N-methyl-piperidine-3-carboxamide] | 1000 to 10000
COC(=O)C1CC(NC(=O)[C@@H](C)Oc2ccc3c(-c4ccccc4Cl)cc(Cl)nc3c2)C1 (stereo partly drawn) [Compound 97, methyl 3-[[(2R)-2-[[2-chloro-4-(2-chlorophenyl)-7-quinolyl]oxy]propanoyl]amino]cyclobutanecarboxylate] | 1000 to 10000
CNC(=O)C[C@H]1CCCN(C(=O)[C@@H](C)Oc2ccc3c(-c4ccc(F)cc4Cl)cc(Cl)nc3c2)C1 [Compound 98, 2-((R)-1-((R)-2-((2-chlor-4-(2-chloro-4-fluorophenyl)quinolin-7-yl)oxy)propanoyl)piperidin-3-yl)-N-methylacetamide] | 1000 to 10000
C[C@@H](Oc1ccc2c(-c3ccccc3Cl)cc(Cl)nc2c1)C(=O)N1CCC[C@H](C(=O)N(C)C)C1 [Compound 100, (3S)-1-[(2R)-2-[[2-chloro-4-(2-chlorophenyl)-7-quinolyl]oxy]propanoyl]-N,N-dimethyl-piperidine-3-carboxamide] | 1000 to 10000
C[C@H](Oc1ccc2c(-c3ccccc3Cl)ccnc2c1)C(=O)N1CCC[C@@H](C(=O)O)C1 [Compound 102, (3R)-1-[(2S)-2-[[4-(2-chlorophenyl)-7-quinolyl]oxy]propanoyl]piperidine-3-carboxylic acid] | 1000 to 10000
C[C@@H](Oc1ccc2c(-c3ccccc3Cl)ccnc2c1)C(=O)O [Compound 103, (2R)-2-[[4-(2-chlorophenyl)-7-quinolyl]oxy]propanoic acid] | 1000 to 10000
CNC(=O)[C@H]1CCCN(C(=O)[C@@H](C)Oc2ccc3c(-c4ccc(F)cc4Cl)cc(Cl)nc3c2)C1 [Compound 105, (3S)-N-methyl-1-[(2R)-2-[[2-chloro-4-(2-chloro-4-fluoro-phenyl)-7-quinolyl]oxy]propanoyl]piperidine-3-carboxamide] | 1000 to 10000
Cc1ccccc1-c1ccnc2cc(OCC(N)=O)ccc12 [Compound 106, 2-((4-(o-tolyl)quinolin-7-yl)oxy)acetamide] | 1000 to 10000
C[C@@H](Oc1ccc2c(-c3ccc(F)cc3Cl)cc(Cl)nc2c1)C(=O)N1CCCCC1 [Compound 107, (2R)-2-[[2-chloro-4-(2-chloro-4-fluoro-phenyl)-7-quinolyl]oxy]-1-(1-piperidyl)propan-1-one] | 1000 to 10000
CCOC(=O)c1cccc(NC(=O)[C@@H](C)Oc2ccc3c(-c4ccc(F)cc4Cl)ccnc3c2)c1 [Compound 108, ethyl 3-[[(2 R)-2-[[4-(2-chloro-4-fluoro-phenyl)-7-quinolyl]oxy]propanoyl]amino]benzoate] | 1000 to 10000
C[C@@H](Oc1ccc2c(-c3ccccc3F)ccnc2c1)C(=O)N1CCC[C@H](CC(=O)O)C1 [Compound 110, 2-[(3R)-1-[(2R)-2-[[4-(2-fluorophenyl)-7-quinolyl]oxy]propanoyl]-3-piperidyl]acetic acid] | 1000 to 10000
Cc1cc(-c2ccccc2C)c2ccc(O[C@H](C)C(=O)N3CCC[C@H](C(=O)OC(C)(C)C)C3)cc2n1 [Compound 111] | 1000 to 10000
CC(C)c1ccccc1-c1ccnc2cc(O[C@H](C)C(=O)N3CCC[C@H](CC(=O)O)C3)ccc12 [Compound 122, 2-[(3R)-1-[(2R)-2-[[4-(2-isopropylphenyl)-7-quinolyl]oxy]propanoyl]-3-piperidyl]acetic acid] | 1000 to 10000
C[C@@H](Oc1ccc2c(-c3ccc(F)cc3Cl)ccnc2c1)C(=O)Nc1ccc(CCO)cc1 [Compound 125, (2R)-2-[[4-(2-chloro-4-fluoro-phenyl)-7-quinolyl]oxy]-N-[4-(2-hydroxyethyl)phenyl]propanamide] | 1000 to 10000
C[C@H](Oc1ccc2c(-c3ccc(F)cc3Cl)ccnc2n1)C(=O)N1CCC[C@H](C(=O)O)C1 [Compound 127, (3S)-1-[(2S)-2-[[5-(2-chloro-4-fluoro-phenyl)-1,8-naphthyridin-2-yl]oxy]propanoyl]piperidine-3-carboxylic acid] | 1000 to 10000
Cc1ccsc1-c1ccnc2cc(O[C@H](C)C(=O)N3CCC[C@H](CC(=O)O)C3)ccc12 [Compound 134, 2-[(3R)-1-[(2R)-2-[[4-(3-methyl-2-thienyl)-7-quinolyl]oxy]propanoyl]-3-piperidyl]acetic acid] | 1000 to 10000
